Bounds are passed on as bounds.

This test deals with bovine cardiac myofibrils. The test can be described thus: Myofibril assay: PK/LDH-coupled steady-state ATPase activity of skinned bovine cardiac myofibrils. Conditions: Ca2+ activating to 75% of maximal rate. Type of test: biochemical. The protocol:
To evaluate the effect of compounds on the ATPase activity of full-length cardiac myosin in the context of the native sarcomere, skinned myofibril assays were performed. Bovine cardiac myofibrils were obtained by homogenizing bovine cardiac left ventricular tissue in the presence of a detergent such as triton X-100. Such treatment removes membranes and a majority of the soluble cytoplasmic proteins but leaves intact the cardiac sarcomeric acto-myosin apparatus. Myofibril preparations retain the ability to hydrolyze ATP in a Ca^2+ regulated manner. ATPase activities of such myofibril preparations in the presence and absence of compounds were assayed at Ca^2+ concentrations activating to a defined fraction of the maximal rate (i.e., […], 75%). Small molecule agents were assessed for their ability to inhibit the steady-state ATPase activity of bovine cardiac myofibrils using pyruvate kinase and lactate dehydrogenase (PK/LDH)-coupled enzyme system. This assay regenerates myosin-produced ADP into ATP by oxidizing NADH, producing an absorbance change at 340 nm. Prior to testing small molecule agents, the bovine cardiac myofibrils were assessed for their calcium responsiveness and the calcium concentration that achieves either a 50% (pCa50) or 75% (pCa75) activation of the myofibril system was chosen as the final condition for assessing the inhibitory activity of the small molecule agents. All enzymatic activity was measured in a buffered solution containing 12 mM PIPES (piperazine-N,N′-bis(2-ethanesulfonic acid), 2 mM magnesium chloride at pH 6.8 (PM 12 buffer). Final assay conditions were 1 mg/mL of bovine cardiac myofibrils, 4 U/mL pyruvate kinase, 6 U/mL lactate dehydrogenase, 50 μM ATP, 0.1 mg/mL BSA (bovine serum albumin), 10 ppm antifoam, 1 mM DTT, 0.5 mM NADH, 1.5 mM PEP, 0.6 mM EGTA, and an amount of CaCl2 sufficient to achieve either 50% or 75% activation of the myofibril ATPase activity. Results for compounds tested are provided in Table A. Compounds tested were prepared in accordance with the synthetic procedures described herein.
Regarding `CC(C)N1CC(=O)N(Cc2ccc(Cl)cc2)C(c2ccc(Cl)cc2)C1=O` (racemic) [Compound 288, 3-(4-chlorophenyl)-4-[(4-chlorophenyl)methyl]-1-(propan-2-yl)piperazine-2,5-dione], the “CDMF75 IC15” value was found to be 1.8 µM.
For `CC(=O)NCC1(C)C(=O)N(c2ncc(Cl)cc2F)CC(=O)N1Cc1ccc(C(F)(F)F)cc1` (racemic) [Compound 630, N-((4-(5-chloro-3-fluoropyridin-2-yl)-2-methyl-3,6-dioxo-1-(4-(trifluoromethyl)benzyl)piperazin-2-yl)methyl)acetamide] the value was 18.7 µM; for `Cc1cnc(N2CC(=O)N(Cc3ccc(C(F)(F)F)cc3)C(C3COC3)C2=O)c(F)c1` (racemic) [Compound 691, 1-(3-fluoro-5-methylpyridin-2-yl)-3-(oxetan-3-yl)-4-(4-(trifluoromethyl)benzyl)piperazine-2,5-dione], 27.6 µM; for `COc1cnc(N2CC(=O)N(Cc3ccc(C(F)(F)F)cc3)C(C3COC3)C2=O)c(F)c1` (racemic) [Compound 703, 1-(3-fluoro-5-methoxypyridin-2-yl)-3-(oxetan-3-yl)-4-(4-(trifluoromethyl)benzyl)piperazine-2,5-dione], 10.1 µM.
Next, `CC(C)N1CC(=O)N(Cc2ccc(Cl)cc2)C(c2ccc(Cl)cc2)C1=O` (single isomer, unassigned) [Compound 288B, 3-(4-chlorophenyl)-4-[(4-chlorophenyl)methyl]-1-(propan-2-yl)piperazine-2,5-dione]: >39 µM; `CC(C)N1CC(=O)N(Cc2ccc(Cl)cc2)C2(CCN(C(N)=O)C2)C1=O` (single isomer, unassigned) [Compound 367A, 6-[(4-chlorophenyl)methyl]-7,10-dioxo-9-(propan-2-yl)-2,6,9-triazaspiro[4.5]decane-2-carboxamide]: 8.8 µM.
With `CC(C)N1CC(=O)N(Cc2ccc(Cl)cc2)C2(CCN(C(N)=O)C2)C1=O` (single isomer, unassigned) [Compound 367B, 6-[(4-chlorophenyl)methyl]-7,10-dioxo-9-(propan-2-yl)-2,6,9-triazaspiro[4.5]decane-2-carboxamide], the “CDMF75 IC15” value was >39 µM.
Next, `CC(C)N1CC(=O)N(Cc2ccc(Cl)cc2)C2(CCN(c3ccccn3)C2)C1=O` (single isomer, unassigned) [Compound 373B, 6-[(4-chlorophenyl)methyl]-9-(propan-2-yl)-2-(pyridin-2-yl)-2,6,9-triazaspiro[4.5]decane-7,10-dione]: >39 µM; `O=C1CN(c2ccc(Cl)cc2F)C(=O)[C@]2(C[C@@H](O)C2)N1Cc1ccc(C(F)(F)F)cc1` (single isomer, unassigned) [Compound 483B]: 0.7 µM; `COC(=O)[C@H]1C[C@]2(C1)C(=O)N(c1ccc(C#N)cc1F)CC(=O)N2Cc1ccc(Cl)cc1` (single isomer, unassigned) [Compound 488B]: 0.2 µM.
Consider `N#Cc1ccc(N2CC(=O)N(Cc3ccc(Cl)cc3)[C@]3(C[C@H](C(=O)N4CCC(O)CC4)C3)C2=O)c(F)c1` (single isomer, unassigned) [Compound 492B], for which the “CDMF75 IC15” value amounted to 0.4 µM.
Take `Cc1nc([C@H]2C[C@]3(C2)C(=O)N(C(C)C)CC(=O)N3Cc2ccc(C(F)(F)F)cc2)oc1C` (single isomer, unassigned) [Compound 500B]: the “CDMF75 IC15” value was found to be 35.5 µM.
For `CC(=O)NCC1(C)C(=O)N(c2ncc(Cl)cc2F)CC(=O)N1Cc1ccc(C(F)(F)F)cc1` (single isomer, unassigned) [Compound 630A, N-((4-(5-chloro-3-fluoropyridin-2-yl)-2-methyl-3,6-dioxo-1-(4-(trifluoromethyl)benzyl)piperazin-2-yl)methyl)acetamide] the value was 9.7 µM.
Next, `CC(=O)NCC1(C)C(=O)N(c2ncc(Cl)cc2F)CC(=O)N1Cc1ccc(C(F)(F)F)cc1` (single isomer, unassigned) [Compound 630B, N-((4-(5-chloro-3-fluoropyridin-2-yl)-2-methyl-3,6-dioxo-1-(4-(trifluoromethyl)benzyl)piperazin-2-yl)methyl)acetamide]: >39 µM; `Cc1cnc(N2CC(=O)N(Cc3ccc(C(F)(F)F)cc3)C(C3COC3)C2=O)c(F)c1` (single isomer, unassigned) [Compound 691A, 1-(3-fluoro-5-methylpyridin-2-yl)-3-(oxetan-3-yl)-4-(4-(trifluoromethyl)benzyl)piperazine-2,5-dione]: 12.06 µM.
For `Cc1cnc(N2CC(=O)N(Cc3ccc(C(F)(F)F)cc3)C(C3COC3)C2=O)c(F)c1` (single isomer, unassigned) [Compound 691B, 1-(3-fluoro-5-methylpyridin-2-yl)-3-(oxetan-3-yl)-4-(4-(trifluoromethyl)benzyl)piperazine-2,5-dione] the value was >39 µM; for `COc1cnc(N2CC(=O)N(Cc3ccc(C(F)(F)F)cc3)C(C3COC3)C2=O)c(F)c1` (single isomer, unassigned) [Compound 703A, 1-(3-fluoro-5-methoxypyridin-2-yl)-3-(oxetan-3-yl)-4-(4-(trifluoromethyl)benzyl)piperazine-2,5-dione], 4.0 µM.
For the compound `COc1cnc(N2CC(=O)N(Cc3ccc(C(F)(F)F)cc3)C(C3COC3)C2=O)c(F)c1` (single isomer, unassigned) [Compound 703B, 1-(3-fluoro-5-methoxypyridin-2-yl)-3-(oxetan-3-yl)-4-(4-(trifluoromethyl)benzyl)piperazine-2,5-dione], the “CDMF75 IC15” value was determined as 37.2 µM.
For `O=C1C(C2CC(O)C2)N(Cc2ccc(C(F)(F)F)cc2)C(=O)CN1c1ncc(Cl)cc1F` (single isomer, unassigned) [Compound 740A, 1-(5-chloro-3-fluoropyridin-2-yl)-3-(3-hydroxycyclobutyl)-4-(4-(trifluoromethyl)benzyl)piperazine-2,5-dione] the value was 1.1 µM; for `O=C1C(C2CC(O)C2)N(Cc2ccc(C(F)(F)F)cc2)C(=O)CN1c1ncc(Cl)cc1F` (single isomer, unassigned) [Compound 740B, 1-(5-chloro-3-fluoropyridin-2-yl)-3-(3-hydroxycyclobutyl)-4-(4-(trifluoromethyl)benzyl)piperazine-2,5-dione], 0.97 µM; for `O=C1C(C2CC(O)C2)N(Cc2ccc(C(F)(F)F)cc2)C(=O)CN1c1ncc(Cl)cc1F` (single isomer, unassigned) [Compound 740C, 1-(5-chloro-3-fluoropyridin-2-yl)-3-(3-hydroxycyclobutyl)-4-(4-(trifluoromethyl)benzyl)piperazine-2,5-dione], >39 µM.
For `O=C1C(C2CC(O)C2)N(Cc2ccc(C(F)(F)F)cc2)C(=O)CN1c1ncc(Cl)cc1F` (single isomer, unassigned) [Compound 740D, 1-(5-chloro-3-fluoropyridin-2-yl)-3-(3-hydroxycyclobutyl)-4-(4-(trifluoromethyl)benzyl)piperazine-2,5-dione] the value was >39 µM; for `O=C1C(CO)N(Cc2ccc(C(F)(F)F)cc2)C(=O)CN1c1ncc(Cl)cc1F` (single isomer, unassigned) [Compound 857A, 1-(5-chloro-3-fluoropyridin-2-yl)-3-(hydroxymethyl)-4-(4-(trifluoromethyl)benzyl)piperazine-2,5-dione], 5.3 µM; for `O=C1C(CO)N(Cc2ccc(C(F)(F)F)cc2)C(=O)CN1c1ncc(Cl)cc1F` (single isomer, unassigned) [Compound 857B, 1-(5-chloro-3-fluoropyridin-2-yl)-3-(hydroxymethyl)-4-(4-(trifluoromethyl)benzyl)piperazine-2,5-dione], >39 µM.
For `CCOC(=O)C1CC2(C1)C(=O)N(c1ncc(Cl)cc1F)CC(=O)N2Cc1ccc(C(F)(F)F)cc1` (single isomer, unassigned) [Compound 859A, ethyl 8-(5-chloro-3-fluoropyridin-2-yl)-6,9-dioxo-5-(4-(trifluoromethyl)benzyl)-5,8-diazaspiro[3.5]nonane-2-carboxylate] the value was 0.6 µM.
`CCOC(=O)C1CC2(C1)C(=O)N(c1ncc(Cl)cc1F)CC(=O)N2Cc1ccc(C(F)(F)F)cc1` (single isomer, unassigned) [Compound 859B, ethyl 8-(5-chloro-3-fluoropyridin-2-yl)-6,9-dioxo-5-(4-(trifluoromethyl)benzyl)-5,8-diazaspiro[3.5]nonane-2-carboxylate]: the “CDMF75 IC15” value was found to be 0.3 µM.
In the case of `O=C1C(C2COC2)N(Cc2ccc(C(F)(F)F)cc2)C(=O)CN1c1ncc(Cl)cc1F` (single isomer, unassigned) [Compound 861B, 1-(5-chloro-3-fluoropyridin-2-yl)-3-(oxetan-3-yl)-4-(4-(trifluoromethyl)benzyl)piperazine-2,5-dione], the “CDMF75 IC15” value is 5.8 µM.

The values above are taken from patent publication US11414424B2, “Cardiac sarcomere inhibitors” (Cytokinetics, Inc., priority 2018, dated 2022).
